Measurements from patent US20100105773A1, “USE OF RESOLVINS AND DOCOSATRIENES AND ANALOGUES THEREOF FOR THE TREATMENT OF ANGIOGENESIS AND OCULAR NEOVASCULARIZATION” (THE CHILDREN'S MEDICAL CENTER CORPORATION, priority 2006, published 2010).
“Also recorded” adds a separate entry of the source.

Assays:
TNF-α = conditions: literature refs 14-16; cited from earlier work
[1] = test system: oxygen-induced vessel loss (retinal vasculature); experiment: Oxygen-induced vessel loss (vaso-obliteration) at P8 after 24 hours of 75% oxygen; format: in vivo, mouse; conditions: 10 ng i.p. P5-P8, 24 hours of 75% oxygen
Method: O2-induced retinopathy (vessel degeneration, re-growth and pathological neovascularization). To induce vessel loss, postnatal day 7 (P7) mice with their nursing mother were exposed to 75% oxygen for times ranging from 24 hours to 5 days^1. To evaluate vaso-obliteration following 24 hours of oxygen exposure, P8 mice were anesthetized at with Avertin (Sigma) and perfused with 50 μl of 120 mg/ml FITC-dextran (2×10^6 molecular weight, FD2000S-5G, Sigma) in saline through the left ventricle^21. Eyes were enucleated and fixed in 4% paraformaldehyde for 2 h at 4° C. Retinas were isolated and whole-mounted with SlowFade Antifade reagent (S2828, Molecular Probes) onto polylysin-coated slides with the photoreceptor side up. Retinas were examined with a fluorescence microscope (Olympus, Tokyo), digitized images using a three-charge-coupled device color video camera (DX-950P, Sony), and processed with NORTHERN ECLIPSE software (Empix Imaging, Toronto). Retinal neovascularization was evaluated 5 days after oxygen exposure (P7-P12) at P17 when the neovascular response is greatest. […]
Quantification of vaso-obliteration and retinal neovascularization. […] Vaso-obliteration and neovascular tuft formation were quantified by comparing the number of pixels in the affected areas with the total number of pixels in the retina. […]
Resolvins and Neuroprotectins. […] Retinas collected at P17 from omega-6 or omega-3 polyunsaturated fatty acid fed dams and exposed to high oxygen or room air conditions were analyzed to determine lipid mediator profiles. Polyunsaturated fatty acid derived products were extracted, identified, and quantified using a deuterium-labeled internal standard and MS-MS based mediator informatics^23. […] Following retinal staining and whole-mounting, neovascularization and vaso-obliteration were quantified at P17. Vaso-obliteration was also assessed at P8 (after 24 hours of 75% oxygen exposure) in pups given 10 ng of RvD1 (n=7), RvE1 (n=9), NPD1 (n=7), or saline/EtOH vehicle injections (n=6) i.p. from P5-P8. […]

[2] = test system: oxygen-induced retinopathy (retinal vasculature); experiment: O2-induced retinopathy: vaso-obliteration and neovascularization at P17; format: in vivo, mouse; conditions: for decrease in neovascularization (Tufts) compared to vehicle / decrease in vessel loss (VO) compared to vehicle control: 10 ng i.p. daily P6-P17, read at P17; for neovascularization at P17 compared to saline controls / protection from vaso-obliteration compared to saline-injected controls: 10 ng/day i.p. P6-P17
Method: O2-induced retinopathy (vessel degeneration, re-growth and pathological neovascularization). To induce vessel loss, postnatal day 7 (P7) mice with their nursing mother were exposed to 75% oxygen for times ranging from 24 hours to 5 days^1. To evaluate vaso-obliteration following 24 hours of oxygen exposure, P8 mice were anesthetized at with Avertin (Sigma) and perfused with 50 μl of 120 mg/ml FITC-dextran (2×10^6 molecular weight, FD2000S-5G, Sigma) in saline through the left ventricle^21. Eyes were enucleated and fixed in 4% paraformaldehyde for 2 h at 4° C. Retinas were isolated and whole-mounted with SlowFade Antifade reagent (S2828, Molecular Probes) onto polylysin-coated slides with the photoreceptor side up. Retinas were examined with a fluorescence microscope (Olympus, Tokyo), digitized images using a three-charge-coupled device color video camera (DX-950P, Sony), and processed with NORTHERN ECLIPSE software (Empix Imaging, Toronto). Retinal neovascularization was evaluated 5 days after oxygen exposure (P7-P12) at P17 when the neovascular response is greatest. P17 mice were given a lethal dose of Avertin (Sigma) and their eyes were enucleated and fixed in 4% paraformaldehyde for 2 h at 4° C. Retinas were isolated and stained overnight with fluoresceinated Griffonia Bandereiraea Simplicifolia Isolectin B4 (Alexa Fluor 488-121411 or Alexa Fluor 594-121413, Molecular Probes) in 1 mM CaCl2 in PBS. Following 2 hours of washes, retinas were whole-mounted with glycerol-gelatin (Sigma) onto polylysin-coated slides with the photoreceptor side up and imaged with a confocal microscope.
Quantification of vaso-obliteration and retinal neovascularization. Images of each of 4 quadrants of whole-mounted retina were taken at 5× magnification and imported into Adobe Photoshop. Retinal segments were merged to produce an image of the entire retina. Vaso-obliteration and neovascular tuft formation were quantified by comparing the number of pixels in the affected areas with the total number of pixels in the retina. Percentages of vaso-obliteration and neovascularization from mouse retinas were compared with values for retinas from age-matched control mice with identical oxygen conditions^17,22. Evaluation was done blind to the identity of the sample.
Resolvins and Neuroprotectins. C57B1/6 nursing mothers were fed a diet rich in either omega-6 or omega-3 polyunsaturated fatty acids from birth. To induce proliferative retinopathy in the pups, mice were exposed to 75% oxygen from P7 to P12. Retinas collected at P17 from omega-6 or omega-3 polyunsaturated fatty acid fed dams and exposed to high oxygen or room air conditions were analyzed to determine lipid mediator profiles. Polyunsaturated fatty acid derived products were extracted, identified, and quantified using a deuterium-labeled internal standard and MS-MS based mediator informatics^23. Results were obtained from retinas of six mice, each from a separate litter. Treatments with synthetic RvD1 (7S,8R,17S-trihydroxy-docosa-4Z,9E,11E,13Z,15E,19Z-hexaenoic acid), RvE1 (5S,12R,18R-trihydroxy-6Z,8E,10E,14Z,16E-eicosapentaenoic acid) and Neuroprotectin-D1 (10R,17S dihydroxy-docosa-4Z,7Z,11E,13E,15Z,19z-hexaneoic acid) were performed in 4 litters of mice. RvD1, RvE1 and NPD1 were prepared by organic synthesis according to published procedures matching physical and biological criteria^14,24,25. The pups were injected i.p. daily from P6-P17 (before, during, and after exposure to 75% oxygen) with 10 ng of either RvD1 (n=14), RvE1 (n=10) or NPD1 (n=14) or Saline/EtOH (n=14) vehicle. Following retinal staining and whole-mounting, neovascularization and vaso-obliteration were quantified at P17. Vaso-obliteration was also assessed at P8 (after 24 hours of 75% oxygen exposure) in pups given 10 ng of RvD1 (n=7), RvE1 (n=9), NPD1 (n=7), or saline/EtOH vehicle injections (n=6) i.p. from P5-P8. Vaso-obliteration was quantified on retinal whole-mounts following FITC-dextran intracardiac perfusion and fixation as above. […]

[3] = test system: oxygen-induced retinopathy (retinal vasculature); experiment: as above; format: in vivo, mouse
[4] = i.p. injection, 500 μg/mouse at P7, P12, P14, P16, omega-6 PUFA fed mice
[5] = intraocular (intravitreous) injection 12.5 μg on P12, omega-6 PUFA fed mice

CC/C=C\C[C@H](O)\C=C/C=C/C=C/[C@H](O)C/C=C\C/C=C\CCC(=O)O [NPD1, 10R,17S dihydroxy-docosa-4Z,7Z,11E,13E,15Z,19z-hexaneoic acid]
TNF-α mRNA expression levels in inflammatory models (TNF-α): significantly reduce TNF-α mRNA expression levels | oxygen-induced vessel loss (VO) at P8 compared to saline-injected control [1]: No apparent differences in vessel loss; also recorded: no protective action | decrease in neovascularization (Tufts) compared to vehicle [2]: 30% | decrease in vessel loss (VO) compared to vehicle control [2]: 40% | neovascularization at P17 compared to saline controls [2]: less neovascularization | protection from vaso-obliteration compared to saline-injected controls [2]: significant protection from vaso-obliteration

CC/C=C\C[C@H](O)/C=C/C=C\C=C\C=C\[C@@H](O)[C@@H](O)C/C=C\CCC(=O)O [RvD1, 7S,8R,17S-trihydroxy-docosa-4Z,9E,11E,13Z,15E,19Z-hexaenoic acid]
TNF-α mRNA expression levels in inflammatory models (TNF-α): significantly reduce TNF-α mRNA expression levels | oxygen-induced vessel loss (VO) at P8 compared to saline-injected control [1]: No apparent differences in vessel loss | decrease in neovascularization (Tufts) compared to vehicle [2]: 30% | decrease in vessel loss (VO) compared to vehicle control [2]: 40% | neovascularization at P17 compared to saline controls [2]: less neovascularization | protection from vaso-obliteration compared to saline-injected controls [2]: significant protection from vaso-obliteration

CC[C@@H](O)/C=C/C=C\C[C@@H](O)/C=C/C=C/C=C\[C@@H](O)CCCC(=O)O [RvE1, 5S,12R,18R-trihydroxy-6Z,8E,10E,14Z,16E-eicosapentaenoic acid]
TNF-α mRNA expression levels in inflammatory models (TNF-α): significantly reduce TNF-α mRNA expression levels | oxygen-induced vessel loss (VO) at P8 compared to saline-injected control [1]: No apparent differences in vessel loss; also recorded: no protective action | decrease in neovascularization (Tufts) compared to vehicle [2]: 30% | decrease in vessel loss (VO) compared to vehicle control [2]: 40% | neovascularization at P17 compared to saline controls [2]: less neovascularization | protection from vaso-obliteration compared to saline-injected controls [2]: significant protection from vaso-obliteration

etanercept
pathologic neovascularization compared to saline injected controls [3, 4]: significantly protected; also recorded: significant reduction in pathologic neovascularization | vaso-obliteration (vessel loss) compared to saline injected controls [3, 4]: significantly protected; also recorded: significant reduction in vaso-obliteration | retinal neovascularization compared to fellow saline-injected eye [3, 5]: suppressed retinal neovascularization; also recorded: significantly improved neovascularization | vaso-obliteration compared to fellow saline-injected eye [3, 5]: significantly reduce vaso-obliteration
